According to US8937091B2 (Japan Science and Technology Agency, priority 2009, dated 2015):

Assays:
[1] = tested on: IICR (IP3 induced calcium release) in CHO cells; test: Assay of IICR (IP3 induced calcium release)-inhibiting action; type: cell-based, Chinese hamster; settings: CHO cells, 10 μM ATP; for inhibition at 10 µM / inhibition at 30 µM / inhibition at 100 µM: Cricetulus griseus, CHO, read-out: IICR level (percentage of inhibition)
How it was run: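 CHO cell medium replaced with calcium-containing BSS; compound added 1 min later, then 10 μM ATP after a further 2 min. Percent inhibition of the ATP-evoked rise in intracellular calcium determined at each compound concentration.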

[2] = tested on: SOCE (store operated calcium entry) in CHO cells; test: Assay of SOCE (store operated calcium entry)-inhibiting action; type: cell-based, Chinese hamster; settings: CHO cells, thapsigargin; for inhibition at 10 µM / inhibition at 30 µM / inhibition at 100 µM: Cricetulus griseus, CHO, read-out: SOCE level (percentage of inhibition)
How it was run: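 CHO cells in calcium-free BSS received compound, then 1 μM thapsigargin 2 min later to deplete stores; after 9 min, 2 mM calcium chloride (final) added. Percent inhibition of the rise in intracellular calcium determined at various compound concentrations.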

| SMILES | inhibition at 10 µM ([1]; test compound 10 μmol) | inhibition at 30 µM ([1]; test compound 30 μmol) | inhibition at 100 µM ([1]; test compound 100 μmol) | inhibition at 10 µM ([2]; test compound 10 μmol) | inhibition at 30 µM ([2]; test compound 30 μmol) | inhibition at 100 µM ([2]; test compound 100 μmol) | IICR level (percentage of inhibition) ([1]; test compound 10 μmol) | IICR level (percentage of inhibition) ([1]; test compound 30 μmol) | IICR level (percentage of inhibition) ([1]; test compound 100 μmol) | SOCE level (percentage of inhibition) ([2]; test compound 10 μmol) | SOCE level (percentage of inhibition) ([2]; test compound 30 μmol) | SOCE level (percentage of inhibition) ([2]; test compound 100 μmol) |
| --- | --- | --- | --- | --- | --- | --- | --- | --- | --- | --- | --- | --- |
| O=C(CCNCCc1ccccc1)c1ccc(Br)s1 [Example 351, 2-phenethylaminoethyl-5-bromo-2-thienylketone] | 30% | 0% | 0% | 0% | 9% | 32% | – | – | – | – | – | – |
| O=C(CCNCCCO)c1ccc(Br)s1 [Example 352, 2-(3-hydroxypropyl)aminoethyl-5-bromo-2-thienylketone] | 30% | 0% | 0% | 0% | 0% | 34% | – | – | – | – | – | – |
| O=C(CCNC(O)c1ccccc1)c1ccc(Br)s1 (stereo not drawn) [Example 353, 2-(1-hydroxy-1-phenylmethyl)aminoethyl-5-bromo-2-thienylketone] | 60% | 0% | 20% | 0% | 0% | 7% | – | – | – | – | – | – |
| O=C(CCNCCN(CCO)CCC(=O)c1ccc(Br)s1)c1ccc(Br)s1 [Example 354, 2-(N-5-bromothionylethylaminoethyl-N-hydroxyethyl)aminoethyl-5-bromo-2-thienylketone] | 0% | 0% | 60% | 0% | 10% | 10% | – | – | – | – | – | – |
| O=C(CCNC(c1ccccc1)C(O)c1ccccc1)c1ccc(Br)s1 (stereo not drawn) [Example 355, 2-(2-hydroxy-1,2-diphenyl-ethyl)aminoethyl-5-bromo-2-thienylketone] | 0% | 0% | 50% | 0% | 16% | 16% | – | – | – | – | – | – |
| O=C(CCNC(CO)Cc1ccccc1)c1ccc(Br)s1 (stereo not drawn) [Example 357, 2-(N-hydroxy-1-benzylethyl)aminoethyl-5-bromo-2-thienylketone] | 0% | 0% | 70% | 0% | 9% | 47% | – | – | – | – | – | – |
| O=C(CCNCCO)c1ccc(Br)s1 [Example 358, 2-(N-hydroxyethyl)aminoethyl-5-bromo-2-thienylketone] | – | – | – | – | – | – | 0% | 0% | 70% | 0% | 4% | 23% |
| O=C(CCN(CCO)c1ccccc1)c1ccc(Br)s1 [Example 359, 2-(N-hydroxyethyl-N-phenyl)aminoethyl-5-bromo-2-thienylketone] | 0% | 0% | 70% | 0% | 24% | 57% | – | – | – | – | – | – |
| CC(O)CNCCC(=O)c1ccc(Br)s1 (stereo not drawn) [Example 360, 2-(N-2-hydroxypropyl)aminoethyl-5-bromo-2-thienylketone] | 0% | 0% | 70% | 10% | 0% | 20% | – | – | – | – | – | – |
| O=C(CCN1CCC(CCO)CC1)c1ccc(Br)s1 [Example 361, 2-(4-hydroxyethylpiperadino)ethyl-5-bromo-2-thienylketone] | 22% | 0% | 19% | 22% | 2% | 19% | – | – | – | – | – | – |
| CCN(CO)CCC(=O)c1ccc(Br)s1 [Example 362, 2-(N-hydroxymethyl-N-ethyl)aminoethyl-5-bromo-2-thienylketone] | 0% | 0% | 70% | 11% | 13% | 23% | – | – | – | – | – | – |
| CN1CCN(CCC(=O)c2ccc(Br)s2)CC1 [Example 363, 2-(N-methylpiperadino)ethyl-5-bromo-2-thienylketone] | 0% | 0% | 70% | 0% | 0% | 14% | – | – | – | – | – | – |
| O=C(CCNCCc1cnc[nH]1)c1ccc(Br)s1 [Example 364, 2-(4-imidazolylethyl)aminoethyl-5-bromo-2-thienylketone] | 0% | 0% | 40% | 24% | 49% | 70% | – | – | – | – | – | – |
| CCC(CO)(CO)NCCC(=O)c1ccc(Br)s1 [Example 365, 2-(N-1,1-bishydroxymethylpropyl)aminoethyl-5-bromo-2-thienylketone] | 0% | 0% | 70% | 0% | 0% | 10% | – | – | – | – | – | – |
| NCCSSCCN(CCC(=O)c1ccc(Cl)s1)CCC(=O)c1ccc(Cl)s1 [Example 366, N,N-bis(2-(5-chloro-2-thiophenoyl)ethyl)cystamine] | 0% | 0% | 70% | 6% | 0% | 90% | – | – | – | – | – | – |
| NCCSSCCN(CCC(=O)c1ccc(Br)cc1)CCC(=O)c1ccc(Br)cc1 [Example 367, N,N-bis(2-(4-bromo-benzoyl)ethyl)cystamine] | 0% | 0% | 70% | 0% | 17% | 96% | – | – | – | – | – | – |
| CCCCN(CCC(=O)c1ccc(Br)s1)Cc1ccccc1 [Example 373, 2-(N-butyl-N-benzyl)aminoethyl-5-bromo-2-thienylketone] | 0% | 36% | 0% | 100% | 28% | 65% | – | – | – | – | – | – |
| CCCCN(CCC(=O)c1ccc(Cl)s1)Cc1ccccc1 [Example 374, 2-(N-butyl-N-benzyl)aminoethyl-5-chloro-2-thienylketone] | 0% | 8% | 0% | 0% | 0% | 53% | – | – | – | – | – | – |
| CCCCN(CCC(=O)c1ccc(Br)cc1)Cc1ccccc1 [Example 375, 2-(N-butyl-N-benzyl)aminoethyl-4-bromophenylketone] | 0% | 33% | 0% | 4% | 0% | 40% | – | – | – | – | – | – |
| CCCCN(CCC(=O)c1ccncc1)Cc1ccccc1 [Example 376, 2-(N-butyl-N-benzyl)aminoethyl-4-pyridylketone] | 18% | 84% | 51% | 21% | 0% | 27% | – | – | – | – | – | – |
| CCCCN(CCC(=O)c1ccco1)Cc1ccccc1 [Example 377, 2-(N-butyl-N-benzyl)aminoethyl-2-furylketone] | 22% | 20% | 36% | 21% | 0% | 27% | – | – | – | – | – | – |
| CCCCN(CCC(=O)c1ccc2ccccc2c1)Cc1ccccc1 [Example 378, 2-(N-butyl-N-benzyl)aminoethyl-2-naphthylketone] | 50% | 24% | 46% | 0% | 0% | 41% | – | – | – | – | – | – |
| O=C(CCN(CCO)Cc1ccccc1)c1ccc(I)s1 [Example 379, 2-(N-2-hydroxyethyl-N-benzyl)aminoethyl-5-iodo-2-thienylketone] | 50% | 24% | 46% | 20% | 40% | 50% | – | – | – | – | – | – |
| O=C(CCNCc1ccccc1)c1ccc(Br)s1 [Example 382, 2-N-benzylaminoethyl-5-bromo-2-thienylketone] | 0% | 10% | 50% | 0% | 10% | 20% | – | – | – | – | – | – |
| CCCCCCN(CCCCCC)CCC(=O)c1ccc(Br)s1 [Example 383, 2-(N,N-dihexyl)aminoethyl-5-bromo-2-thienylketone] | 0% | 5% | 0% | 25% | 16% | 46% | – | – | – | – | – | – |
| CC(C)CN(CCC(=O)c1ccc(Br)s1)CC(C)C [Example 384, 2-(N,N-diisobutyl)aminoethyl-5-bromo-2-thienylketone] | 0% | 35% | 70% | 0% | 10% | 100% | – | – | – | – | – | – |
